Reference: the NIST ThermoML archive (doi:10.1016/j.jct.2018.02.013)

Assays:
[1] = 101.33 kPa, Liquid; for thermal conductivity: transient hot wire; for mass density: Vibrating tube method; for viscosity: Cone and plate viscometry; for electrical conductivity: Direct current cell with electrodes
[2] = molar heat capacity at constant pressure; conditions: 101.33 kPa, Liquid, Small sample (50 mg) DSC

CCCCCCCC(=O)[O-].CCCCCCCCCCCCCC[P+](CCCCCC)(CCCCCC)CCCCCC [trihexyl(tetradecyl)phosphonium octanoate]
Conditions | electrical conductivity [S/m] | mass density [kg/m3] | molar heat capacity at constant pressure [J/K/mol] | thermal conductivity [W/m/K] | viscosity [mPa·s]
[1], 278.28 K | – | – | – | 0.1611 | –
[1], 288.24 K | – | – | – | 0.1601 | –
[1], 293.15 K | – | 884.5 | – | – | –
[1], 293.2 K | – | – | – | – | 513.6
[1], 297.87 K | – | – | – | 0.1581 | –
[1], 298.15 K | – | 881.4 | – | – | –
[1], 298.2 K | – | – | – | – | 400.2
[1], 300.6 K | 0.00251 | – | – | – | –
[1], 303.15 K | – | 878.4 | – | – | –
[1], 303.2 K | – | – | – | – | 301.2
[1], 303.6 K | 0.00345 | – | – | – | –
[1], 307.71 K | – | – | – | 0.1567 | –
[1], 308 K | 0.00428 | – | – | – | –
[1], 308.2 K | – | – | – | – | 230.8
[1], 313.15 K | – | 872.1 | – | – | –
[1], 313.2 K | – | – | – | – | 179.3
[1], 313.4 K | 0.0057 | – | – | – | –
[1], 317.92 K | – | – | – | 0.1561 | –
[1], 318.2 K | – | – | – | – | 141.2
[1], 319 K | 0.0073 | – | – | – | –
[1], 323.15 K | – | 865.9 | – | – | –
[1], 323.2 K | – | – | – | – | 113
[1], 323.8 K | 0.0091 | – | – | – | –
[1], 328.17 K | – | – | – | 0.1547 | –
[1], 328.2 K | – | – | – | – | 91.42
[1], 328.4 K | 0.011 | – | – | – | –
[1], 333.15 K | – | 859.8 | – | – | –
[1], 333.2 K | 0.0137 | – | – | – | 75.22
[1], 337.66 K | – | – | – | 0.1527 | –
[1], 338.2 K | – | – | – | – | 62.47
[1], 338.6 K | 0.017 | – | – | – | –
[1], 343 K | 0.0198 | – | – | – | –
[1], 343.15 K | – | 853.7 | – | – | –
[1], 343.2 K | – | – | – | – | 52.65
[1], 347.76 K | – | – | – | 0.1507 | –
[1], 348.2 K | – | – | – | – | 44.4
[1], 349.5 K | 0.0247 | – | – | – | –
[1], 353.15 K | – | 847.6 | – | – | –
[1], 353.2 K | – | – | – | – | 37.98
[1], 358.08 K | – | – | – | 0.1497 | –
[1], 358.2 K | – | – | – | – | 32.78
[1], 363.15 K | – | 841.6 | – | – | –
[1], 363.2 K | – | – | – | – | 28.12
[1], 368.2 K | – | – | – | – | 24.48
[2], 293.15 K | – | – | 1138.1 | – | –
[2], 298.15 K | – | – | 1150.7 | – | –
[2], 303.15 K | – | – | 1160.7 | – | –
[2], 308.15 K | – | – | 1170.1 | – | –
[2], 313.15 K | – | – | 1178.9 | – | –
[2], 318.15 K | – | – | 1185.8 | – | –
[2], 323.15 K | – | – | 1192.7 | – | –
[2], 328.15 K | – | – | 1199.6 | – | –
[2], 333.15 K | – | – | 1206.5 | – | –
[2], 338.15 K | – | – | 1213.4 | – | –
[2], 343.15 K | – | – | 1220.9 | – | –
[2], 348.15 K | – | – | 1228.4 | – | –
[2], 353.15 K | – | – | 1235.3 | – | –
[2], 358.15 K | – | – | 1242.2 | – | –
[2], 363.15 K | – | – | 1247.2 | – | –

CCCCCCCCn1cc[n+](C)c1.O=S(=O)([N-]S(=O)(=O)C(F)(F)F)C(F)(F)F
[1]
Conditions | thermal conductivity [W/m/K]
280.03 K | 0.1289
288.73 K | 0.1279
297.76 K | 0.1279
307.59 K | 0.1279
318.58 K | 0.1265
328.58 K | 0.1259
337.48 K | 0.1259
347.72 K | 0.1259
357.76 K | 0.1245
